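Assay format: 96-well plates, 48-hour exposure. At the TGI there is no net growth.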
Columns and labels:
Assay in all cases: DTP human tumour cell line panel, 48 h
786-0 renal = test system: 786-0 renal
T-47D breast = test system: T-47D breast
HT29 colon = test system: HT29 colon
CCRF-CEM leukemia = test system: CCRF-CEM leukemia
MOLT-4 leukemia = test system: MOLT-4 leukemia
SR leukemia = test system: SR leukemia
OVCAR-5 ovarian = test system: OVCAR-5 ovarian
HOP-92 NSCLC = test system: HOP-92 NSCLC
TK-10 renal = test system: TK-10 renal
HS 578T breast = test system: HS 578T breast

Compound	TGI (786-0 renal) [µM]	TGI (T-47D breast) [µM]	TGI (HT29 colon) [µM]	TGI (CCRF-CEM leukemia) [µM]	TGI (MOLT-4 leukemia) [µM]	TGI (SR leukemia) [µM]	TGI (OVCAR-5 ovarian) [µM]	TGI (HOP-92 NSCLC) [µM]	TGI (TK-10 renal) [µM]	TGI (HS 578T breast) [µM]
O=C1CSc2nnc(CCCCCCCCc3nnc4n3NC(=O)CS4)n2N1	> 100	> 100	> 100	51.1	> 100	> 100	> 100	> 100	–	–
Cc1c2cccc-2ccc2c1[nH]c1ccccc12	10.1	8.45	14.4	> 26.1	28.2	18.9	4.77	7.75	4.92	–
CCOC1=C2NC(Cc3ccc(F)cc3)=NC2C(=O)c2ccccc21 (centres undefined)	47.8	–	58.7	61.8	46.7	–	> 100	51.6	> 100	–
NS(=O)(=O)c1cc(S(N)(=O)=O)c(NC(=O)N(c2ccccc2)c2ccccc2)c(Cl)c1Cl	> 100	–	48.2	25.7	42	43.1	> 100	27	> 100	44.9
COC(=O)C(NC(=O)CSc1nnc(COc2ccc(Cl)cc2)n1-c1ccccc1)C(C)C (centres undefined)	38.8	70.6	44.5	> 100	> 100	> 100	75.9	77.2	36.2	–
O=[N+]([O-])c1ccc(NS(=O)(=O)C(F)(F)F)cc1	> 100	> 100	> 100	> 100	> 100	–	> 100	> 100	> 100	> 100
O=C(/C=C/c1ccco1)c1cccc(C(=O)/C=C/c2ccco2)n1	20.5	> 100	37.4	–	6.25	6.82	> 81.9	> 81.9	> 100	> 28.4
CC(=O)CC1(C)OC(N)=C(C#N)C1(C#N)C#N (centres undefined)	> 100	> 100	> 100	> 100	–	–	> 100	> 100	> 100	> 100
Cc1cc(S(=O)(=O)O)c(NC(=O)c2oc3cc(O)ccc3c(=O)c2C)cc1Cl	> 100	> 100	> 100	–	> 100	–	> 100	–	> 100	> 100
COC(=O)n1c(C[P+](c2ccccc2)(c2ccccc2)c2ccccc2)cc2ccccc21	12.8	–	11.8	21.1	17.8	25	8.66	3.34	9.12	–
CO[P@]1(=O)O[C@@H](c2ccccc2)[C@H](O)[C@@]1(O)c1ccccc1	> 100	> 100	> 100	> 100	> 100	> 100	> 100	> 100	> 100	–
O=[N+]([O-])/C=C/c1cn(CCCCCn2cc(/C=C/[N+](=O)[O-])c3ccccc32)c2ccccc12	1.35	> 100	7.82	–	> 20.4	> 100	32.3	67	5.37	7.99
CC/C(Cl)=N\OC(=O)Nc1ccc(F)cc1F	8.77	15.5	51.2	5.11	4.06	–	35.1	4.34	24.3	> 69.5
CCOC(=O)C1CCCCc2sc(N)c(C#N)c21 (centres undefined)	> 100	–	> 100	–	> 100	> 100	> 100	> 100	> 100	> 100
O=S1(=O)OCCOS(=O)(=O)C1Cc1nc2ccccc2[nH]1	> 100	–	> 100	> 100	92.4	> 100	> 100	> 100	> 100	–
O=S(=O)(O)C1CCC(O)C2[N-]CCCC21.O=S(=O)(O)C1CCC(O)C2[N-]CCCC21.[Zn+2] (centres undefined)	> 100	> 100	> 100	–	> 100	> 100	> 100	> 100	> 100	> 100
COc1ccc(-c2nc(-c3cnccn3)n(C3OC(CO)C(O)C(O)C3O)n2)cc1 (centres undefined)	> 100	> 100	> 100	> 100	> 100	> 100	> 100	> 100	> 100	–
CCCCCCCCCCCCCCCCOCC(Cl)COP(=O)(O)OP(=O)(O)OCC1OC(n2cnc3c(N)ncnc32)C(O)C1O (centres undefined)	> 100	> 100	> 100	> 100	> 100	–	> 100	> 100	> 100	> 100
Cc1ccc2c(c1)CC1(C2=O)[C@H](c2ccccc2)C2C(=O)c3ccc(C)cc3C2[C@H]1c1ccccc1 (some centres undefined)	> 100	> 100	> 100	> 100	> 100	> 100	> 100	> 100	> 100	–
CC12CC(c3ccccc3O1)C(C(=O)Nc1cccc(F)c1)C(=O)N2 (centres undefined)	> 100	89.2	> 100	> 100	54.2	> 100	> 100	–	–	> 100
CC(C)(C)c1ccc(-c2nnc(-c3cc(C#N)cc(-c4nnc(-c5ccc(C(C)(C)C)cc5)o4)c3)o2)cc1	> 100	> 100	> 100	> 100	> 100	–	> 100	> 100	> 100	> 100
COc1ccc(/C=C2\CCC(CNc3ccc(Br)cc3)C2=O)cc1 (centres undefined)	> 100	> 100	> 100	> 100	> 100	87.2	> 100	> 100	> 100	–
COC(=O)CC(NC(=O)OCc1ccccc1)C(C(=O)OCc1ccccc1)C1(C)OCCO1 (centres undefined)	> 100	–	> 100	> 100	57.3	58.2	–	–	> 100	–
